Data on eight compounds can be found in PMC7464503, “Antioxidant and Antibacterial Properties of Carbosilane Dendrimers Functionalized with Polyphenolic Moieties” (Pharmaceutics, 2020).

Converted amounts (≈) assume the structure as drawn.

A short description of data set [1]: Cyclic voltammetry, electrochemical characterization of the antioxidant capacity. It counts as physicochemical. The settings on record: for Ep (peak potential) / Ip (peak intensity) / ΔEp (difference between anodic and cathodic peak): glassy carbon electrode, ± SD of three measurements; for Ep (peak potential): 20 mM acetate buffer pH 3.6, vs Ag|AgCl|KCl (3M); for Ip (peak intensity) / ΔEp (difference between anodic and cathodic peak): 20 mM acetate buffer pH 3.6. The protocol: Electrochemical measurements were carried out on an Autolab PGSTAT 12 potentiostat from Metrohm (Utrecht, The Netherlands), employing a glassy carbon (GC) disk working electrode. The GC electrode was polished after each measurement using a 0.1 and 0.05 µm alumina/water slurry until a shiny mirror-like finish was achieved, and washed with ultrapure water. Electrodes were modified with 1 mM solutions of each compound (L, G1, and G2) in MeOH; 5 µL drops were drop-cast in the electrode and allowed to dry before the measurements. Electrochemical measurements were performed in a 20 mM acetate buffer solution (pH 3.6), employing an Ag|AgCl|KCl (3M) reference electrode and a platinum wire as a counterelectrode.
Electrochemical characterization of the antioxidant capacity: The electrochemical behavior of the synthesized polyphenolic dendrimers (1–6), together with the free polyphenol (L), has been investigated using cyclic voltammetry (CV). CV is a powerful electrochemical technique that can be employed to study the ability of a molecule to undergo electron transfer and to estimate the antioxidant activity through the peak potential (Ep), intensity (ip), and reversibility (ΔEp). A lowering in the Ep or ΔEp and an increase in the ip are indicative of higher antioxidant activity.

Data set [2] concerns Escherichia coli (CECT 515). The experiment in a line: In vitro antibacterial activity (ISO 20776-1:2006), turbidity at 625 nm. The data set is classed as cell-based. The settings on record: CECT515, E. coli, 24 h at 37 °C, 1% DMSO, tested up to 16 ppm, read-out: MIC50. The protocol: (§1) In vitro antibacterial analysis of dendritic polyphenols was performed following the international standard method ISO 20776-1:2006 [22]. The antibacterial activity was assayed in two different bacteria, Escherichia coli (CECT 515) and Staphylococcus aureus (CECT 240), both obtained from the Spanish Type Culture Collection in lyophilized form. The biocide solutions were prepared following the EUCAST (European Committee for Antimicrobial Susceptibility Testing) protocol for hydrophobic compounds. For this purpose, stock solutions in DMSO of each compound were made and then, subsequent dilutions in Mueller-Hinton […] (Scharlau, ref. 02–136) were developed to obtain the testing concentrations (from 0.0312 ppm to 16 ppm) with 1% of DMSO. The assay was carried out in 96-well plates, with two different wells for each concentration and with different controls (biocide, inoculum, culture medium, and DMSO). The bacteria were inoculated at a concentration of 10^5 CFU/mL in wells. After 24 h of incubation with biocides at 37 °C, the increase of turbidity at 625 nm was determined using an Ultra Microplate reader (BIO-TECK Instruments, model ELx808). MIC50 and MIC80 values were the concentrations of the compounds with an optical density of 50% and 20% compared to nontreated bacteria.

The test system of data set [3] is Staphylococcus aureus (CECT 240). The data set is described as above. The data set is classed as cell-based. The note with it: CECT240, S. aureus, 24 h at 37 °C, 1% DMSO, tested up to 16 ppm; for IC50: read-out: MIC50; for IC80: read-out: MIC80. The protocol:
as §1

A short description of data set [4]: Cell viability by MTT assay. The data set is classed as cell-based, human. The settings on record: human; for viability at 24 h, 16 ppm: HFF-1, 16 ppm; for viability at 24 h, 8 ppm: HFF-1, 8 ppm. The protocol:
(§2) HFF-1 cells were grown routinely in DMEM (Dulbecco’s modified Eagle’s medium, Sigma Aldrich, St. Louis, MO, USA, ref. D6429) supplemented with 10% fetal bovine serum (FBS, Sigma Aldrich, ref. F7524) and 1% penicillin/streptomycin/amphotericin B (Sigma Aldrich, ref. A5955) at 37 °C and 5% CO2. Cells were seeded in 96-well plates (Nunclon Delta Surface, Thermo Fischer Scientific, Waltham, MA, USA; 8 × 10^3 cells per well) and grown in a complete DMEM medium for 24 h. Cell viability was determined by MTT assay (MTT, 3-(4,5-dimethyl-2-thiazolyl)-2,5-diphenyl-2H-tetrazolium bromide). A stock compound solution was prepared in DMSO. Then, dilutions in cell culture were made to obtain the final concentrations with 1% of DMSO per well. […] After incubation, MTT was added at a concentration of 5 mg/mL and plates were incubated for 3 h. Finally, the culture medium was removed and the purple formazan crystals formed by the mitochondrial dehydrogenase and reductase activity of vital cells were dissolved in DMSO. The optical density, directly proportional to the number of surviving cells, was quantified at 570/630 nm in a spectrophotometer BioTEK 800 (Izasa). The assay was carried out in triplicate, with eight different wells for each concentration and with different controls (culture medium and DMSO).
On the technique in general: Tetrazolium assays rely on reduction of a dye to a coloured formazan, in cell work by metabolically active cells.

Data set [5] can be described thus: DPPH free radical-scavenging assay. The note with it: stated as the same activity as the cited polyether dendrimers. The protocol: This method involves the radical concentration reduction by the antioxidant agent, which entails absorbance reduction and increasing compound concentration. When antioxidants are mixed with DPPH solution, the color turns from purple to yellow, with the maximum absorption at 530 nm. The ability of dendritic polyphenols to scavenge the DPPH radical was evaluated. An aliquot of 100 µL of different stock sample concentrations in the range of 0.01 and 100 µM in methanol was added to a volume of 900 µL of a DPPH stock solution (0.12 mM) in a DMSO/H2O (1:1) mixture. The mixture was shaken, kept in the dark at room temperature, and recorded at 530 nm every 5 min up to 30 min. The blank was constituted by methanol instead of the sample.
The IC50 of DPPH scavenging activity and EC50 of FRAP capacities were calculated following similar protocols. Firstly, for each concentration, it was necessary to calculate the DPPH remnant, as well as the Fe(II) that formed, through the following equations: 1. DPPHREM(%)=(As/Ac)×100 2. Fe(II)FOR(%)=(As−Ac/Ac)×100 where REM = remnant, FOR = formed, As = Sample absorbance, and Ac = Control absorbance. The graphical representation of the percentage of the remnant or formed reagent versus the −log[X] […] The results are expressed as mean ± SEM and are representative of at least three independent experiments.

For data set [6], the system named is HFF-1 cells. The data set can be described thus: Cell viability by MTT assay. It counts as cell-based, human. The note with it: HFF-1, 16 ppm, 24 h. The protocol: as §2
The mark [7] stands for this setting: G2 compared to free polyphenol L.

On to `O=C(O)/C=C/c1ccc(O)c(O)c1` [Caffeic L, reference compound], for which, in data set [1], the “Ep (peak potential)” value worked out at 0.263 ± 0.005 V; the “Ip (peak intensity)” value is reported as 2.91 ± 0.07 µA; the “ΔEp (difference between anodic and cathodic peak)” value is 0.205 ± 0.002 V. In addition, the IC50 in data set [2] is > 16 µg/mL. Moreover, in data set [3], the IC50 was > 16 µg/mL and the IC80 is > 16 µg/mL.
For the compound `COc1cc(/C=C/C(=O)NCCC[Si](C)(C)CCC[Si](CCC[Si](C)(C)CCCNC(=O)/C=C/c2ccc(O)c(OC)c2)(CCC[Si](C)(C)CCCNC(=O)/C=C/c2ccc(O)c(OC)c2)CCC[Si](C)(C)CCCNC(=O)/C=C/c2ccc(O)c(OC)c2)ccc1O` [G1 (1), G1-[Si(CH2)3NH(CO)CH=CHCH2Ph(OH)(OCH3))]4], in data set [1], the “Ep (peak potential)” value was 0.637 ± 0.002 V and the “Ip (peak intensity)” value came to 0.75 ± 0.06 µA. For the same compound, the IC50 in data set [2] was > 16 µg/mL. For the same compound, in data set [3], the IC50 was > 16 µg/mL and the IC80 is > 16 µg/mL. In data set [4], the viability at 24 h, 16 ppm is 95.4 ± 6.6%.
In the case of `C[Si](C)(CCCNC(=O)/C=C/c1ccc(O)c(O)c1)CCC[Si](CCC[Si](C)(C)CCCNC(=O)/C=C/c1ccc(O)c(O)c1)(CCC[Si](C)(C)CCCNC(=O)/C=C/c1ccc(O)c(O)c1)CCC[Si](C)(C)CCCNC(=O)/C=C/c1ccc(O)c(O)c1` [G1 (2), G1-[Si(CH2)3NH(CO)CH=CHCH2Ph(OH)2)]4], in data set [1], the “Ep (peak potential)” value worked out at 0.276 ± 0.009 V; the “Ip (peak intensity)” value is 1.39 ± 0.04 µA; the “ΔEp (difference between anodic and cathodic peak)” value was found to be 0.188 ± 0.006 V. Also, the IC50 in data set [2] was > 16 µg/mL. Further, in data set [3], the IC50 came to 8 µg/mL (≈ 6.11 µM) and the IC80 was determined as 16 µg/mL (≈ 12.2 µM). Moreover, in data set [4], the viability at 24 h, 8 ppm was 98.8 ± 1.7% and the viability at 24 h, 16 ppm was determined as 100%. Moreover, in data set [5], the IC50 is ~5 µM.
Regarding `O=C(O)c1cc(O)c(O)c(O)c1` [Gallic L, 3,4,5-trihydroxybenzoic acid, reference compound], in data set [1], the “Ep (peak potential)” value is 0.477 ± 0.001 V and the “Ip (peak intensity)” value is recorded as 3.87 ± 0.08 µA. Besides, the IC50 in data set [2] was > 16 µg/mL. For the same compound, in data set [3], the IC50 was > 16 µg/mL and the IC80 was > 16 µg/mL.
Take `COc1cc(/C=C/C(=O)NCCC[Si](C)(C)CCC[Si](C)(CCC[Si](C)(C)CCCNC(=O)/C=C/c2ccc(O)c(OC)c2)CCC[Si](CCC[Si](C)(CCC[Si](C)(C)CCCNC(=O)/C=C/c2ccc(O)c(OC)c2)CCC[Si](C)(C)CCCNC(=O)/C=C/c2ccc(O)c(OC)c2)(CCC[Si](C)(CCC[Si](C)(C)CCCNC(=O)/C=C/c2ccc(O)c(OC)c2)CCC[Si](C)(C)CCCNC(=O)/C=C/c2ccc(O)c(OC)c2)CCC[Si](C)(CCC[Si](C)(C)CCCNC(=O)/C=C/c2ccc(O)c(OC)c2)CCC[Si](C)(C)CCCNC(=O)/C=C/c2ccc(O)c(OC)c2)ccc1O` [G2 (4), G2-[Si(CH2)3NH(CO)CH=CHCH2Ph(OH)(OCH3))]8]: the “decrease in the Ep compared to L” value in data set [1] (setting [7]) is 73 mV. Moreover, in data set [1], the “Ep (peak potential)” value is 0.613 ± 0.008 V and the “Ip (peak intensity)” value came out at 0.56 ± 0.02 µA. In addition, the IC50 in data set [2] was > 16 µg/mL. Also, in data set [3], the IC50 was > 16 µg/mL and the IC80 was > 16 µg/mL. Besides, the “% Viability” value in data set [6] is 92.9 ± 7.4%.
In the case of `COc1cc(C=CC(=O)O)ccc1O` [Ferulic L, 3-(4-hydroxy-3-methoxyphenyl)-2-propenoic acid, reference compound], in data set [1], the “Ep (peak potential)” value was 0.686 ± 0.009 V and the “Ip (peak intensity)” value was determined as 3.70 ± 0.08 µA. Moreover, in data set [2], the IC50 is > 16 µg/mL. In data set [3], the IC50 was > 16 µg/mL and the IC80 was > 16 µg/mL.
In the case of `C[Si](C)(CCCNC(=O)/C=C/c1ccc(O)c(O)c1)CCC[Si](C)(CCC[Si](C)(C)CCCNC(=O)/C=C/c1ccc(O)c(O)c1)CCC[Si](CCC[Si](C)(CCC[Si](C)(C)CCCNC(=O)/C=C/c1ccc(O)c(O)c1)CCC[Si](C)(C)CCCNC(=O)/C=C/c1ccc(O)c(O)c1)(CCC[Si](C)(CCC[Si](C)(C)CCCNC(=O)/C=C/c1ccc(O)c(O)c1)CCC[Si](C)(C)CCCNC(=O)/C=C/c1ccc(O)c(O)c1)CCC[Si](C)(CCC[Si](C)(C)CCCNC(=O)/C=C/c1ccc(O)c(O)c1)CCC[Si](C)(C)CCCNC(=O)/C=C/c1ccc(O)c(O)c1` [G2 (5), G2-[Si(CH2)3NH(CO)CH=CHCH2Ph(OH)2)]8], the “decrease in ΔEp compared to L” value in data set [1] (setting [7]) was found to be 85 mV. Besides, in data set [1], the “Ep (peak potential)” value was 0.302 ± 0.010 V; the “Ip (peak intensity)” value turned out to be 0.143 ± 0.09 µA; the “ΔEp (difference between anodic and cathodic peak)” value was 0.120 ± 0.009 V. Besides, the IC50 in data set [2] was > 16 µg/mL. Also, in data set [3], the IC50 was > 16 µg/mL and the IC80 is > 16 µg/mL. Further, in data set [6], the “% Viability” value stood at 100.0 ± 0.0%.
For the compound `C[Si](C)(CCCNC(=O)c1cc(O)c(O)c(O)c1)CCC[Si](CCC[Si](C)(C)CCCNC(=O)c1cc(O)c(O)c(O)c1)(CCC[Si](C)(C)CCCNC(=O)c1cc(O)c(O)c(O)c1)CCC[Si](C)(C)CCCNC(=O)c1cc(O)c(O)c(O)c1` [G1 (3), G1-[Si(CH2)3NH(CO)Ph(OH)3]4], in data set [1], the “Ep (peak potential)” value stood at 0.410 ± 0.008 V and the “Ip (peak intensity)” value is given as 4.12 ± 0.07 µA. Further, the IC50 in data set [2] was determined as 16 µg/mL (≈ 12.6 µM). In data set [3], the IC50 came to 4 µg/mL (≈ 3.15 µM) and the IC80 stood at 8 µg/mL (≈ 6.3 µM). Also, the viability at 24 h, 4 ppm in data set [4] (HFF-1, 4 ppm) was 84.8 ± 7.5%. The compound also displayed a viability at 24 h, 8 ppm in data set [4] of 99.1 ± 1%.

A word on the viability: it is a per cent measure of how many cells are alive, often set against a control. The low end stands for a greater loss of cells, the high end for better survival.
